# “And” between values parts separate entries of the source, which are not always exact repeats. Equal entries are not always repeated.
# Assays:
# Assay type in all cases: cell-based, Murine
# cAMP, glycerol release = assay: cAMP levels and glycerol release in TNF-α induced 3T3-L1 adipocytes (isoproterenol)
# Protocol: The epididymal adipose tissue was dissected, the fresh adipose tissue was weighed and rapidly rinsed with PBS. The adipose tissue was cut and incubated with isoproterenol (10 μM) for 2 h, and homogenized in a cold cleavage buffer to prepare the adipose tissue homogenate. Then the homogenate was centrifuged at 12,000 × g at 4 °C for 15 min, and the supernatant was collected. […] Then the cells were lysed in a petri dish, scraped off, and centrifuged at 12,000 × g at 4 °C for 15 min before the supernatant was collected. […] And concentrations were further standardized according to protein concentration.
# IKKε [1] = molecular target: T1, IKKε (Mus musculus, UniProt Q9R0T8); assay: 3T3-L1 adipocytes transfected with IKKε plasmid (western blotting, cAMP, glycerol, ISO); parameters: endogenous in cells; host or cells: differentiated 3T3-L1 adipocytes; IKKε (western blotting, Figure 8h) / UCP1 (western blotting, Figure 8i) / UCP1 (western blotting, Figure 8j): scale not given here; cAMP levels (Figure 8k) / Glycerol release (Figure 8l): unit not given here
# T1 sequence (Q9R0T8 1-717): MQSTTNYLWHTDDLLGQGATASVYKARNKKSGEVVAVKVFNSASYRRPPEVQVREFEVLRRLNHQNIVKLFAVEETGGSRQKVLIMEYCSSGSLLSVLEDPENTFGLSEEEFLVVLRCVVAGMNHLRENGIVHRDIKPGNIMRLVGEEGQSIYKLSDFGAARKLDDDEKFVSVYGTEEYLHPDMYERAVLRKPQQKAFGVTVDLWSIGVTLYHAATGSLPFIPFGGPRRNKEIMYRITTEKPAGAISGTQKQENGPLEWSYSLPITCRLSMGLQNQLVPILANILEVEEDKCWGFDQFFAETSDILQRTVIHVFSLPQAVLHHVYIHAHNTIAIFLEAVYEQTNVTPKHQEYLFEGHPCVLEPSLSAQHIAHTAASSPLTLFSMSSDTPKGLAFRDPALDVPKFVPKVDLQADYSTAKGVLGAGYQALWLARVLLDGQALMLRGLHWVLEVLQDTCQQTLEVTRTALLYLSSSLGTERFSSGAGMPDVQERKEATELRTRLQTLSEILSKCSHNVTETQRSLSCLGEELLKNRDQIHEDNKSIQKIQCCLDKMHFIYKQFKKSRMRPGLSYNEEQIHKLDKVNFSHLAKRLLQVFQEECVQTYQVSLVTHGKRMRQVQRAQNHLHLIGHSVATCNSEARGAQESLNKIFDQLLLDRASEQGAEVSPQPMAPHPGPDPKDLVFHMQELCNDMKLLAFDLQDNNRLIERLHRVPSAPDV
# Protocol: (§1) Small interference RNA transfection (siRNA) was performed using 4 μM TBK1 siRNA (siTBK1) or 4 μM […]ε) or corresponding NC siRNA (siNC). The epididymal adipose tissue was dissected, the fresh adipose tissue was weighed and rapidly rinsed with PBS. The adipose tissue was cut and incubated with isoproterenol (10 μM) for 2 h, and homogenized in a cold cleavage buffer to prepare the adipose tissue homogenate. Then the homogenate was centrifuged at 12,000 × g at 4 °C for 15 min, and the supernatant was collected. […] Then the cells were lysed in a petri dish, scraped off, and centrifuged at 12,000 × g at 4 °C for 15 min before the supernatant was collected. […] And concentrations were further standardized according to protein concentration. The adipose tissue or 3T3-L1 adipocytes were homogenized by ultrasound in an ice-cold RIPA lysis buffer containing 1% PMSF and centrifuged at 12,000 × g at 4°C for 15 min to collect the supernatant. The BCA protein assay kit (Beyotime, Shanghai, China) was used to detect the total protein concentration. Proteins (20-30 μg) of the sample were separated by 10% SDS-PAGE gel and transferred onto polyvinylidene difluoride (PVDF) membranes. Then the PVDF membranes were blocked in 5% skim milk powder in TBS containing 1% Tween-20 (TBST) for 2 h at room temperature and washed with TBST for 3 times. […] After washing, the membranes were incubated with horseradish peroxidase-conjugated secondary antibodies (in 5% skim milk powder) for 1 h at room temperature. Finally, the membranes were treated with enhanced chemiluminescence agents (Tanon, Shanghai, China) and the signals were monitored using the Tanon 5200 multi chemiluminescent imaging system (Tanon, Shanghai, China).
# IKKε [2] = molecular target: T1, IKKε; assay: IKKε-knockdown 3T3-L1 adipocytes (siRNA; western blotting, cAMP, glycerol, ISO); parameters: endogenous in cells; host or cells: differentiated 3T3-L1 adipocytes; details: ISO +, 10μM BJ -
# Protocol: as §1
smiles,measurement,setting,value
CC(C)NCC(O)c1ccc(O)c(O)c1 (stereo not shown) [ISO],Glycerol release in differentiated 3T3-L1 adipocytes induced by TNF-α,"cAMP, glycerol release; ISO",113.104 µmol/L and 118.167 µmol/L and 114.792 µmol/L
same,cAMP levels in differentiated 3T3-L1 adipocytes induced by TNF-α,"cAMP, glycerol release; ISO",0.361 pmol/mg protein and 0.3597 pmol/mg protein and 0.3681 pmol/mg protein
same,Glycerol release in differentiated 3T3-L1 adipocytes induced by TNF-α,"cAMP, glycerol release; ISO+TNF-α(50ng/ml)",103.823 µmol/L and 102.136 µmol/L and 105.511 µmol/L
same,cAMP levels in differentiated 3T3-L1 adipocytes induced by TNF-α,"cAMP, glycerol release; ISO+TNF-α(50ng/ml)",0.2016 pmol/mg protein and 0.1968 pmol/mg protein and 0.1945 pmol/mg protein
same,Glycerol release (Figure 8l),IKKε [1]; ISO,108.886 and 102.136 and 112.261
same,"UCP1 (western blotting, Figure 8j)",IKKε [1]; ISO,0.8258 and 0.5499 and 0.929
same,cAMP levels (Figure 8k),IKKε [1]; ISO,0.2652 and 0.258 and 0.2726
same,Glycerol release (Figure 8l),IKKε [1]; ISO+IKKε,84.4172 and 90.3234 and 97.917
same,"UCP1 (western blotting, Figure 8j)",IKKε [1]; ISO+IKKε,0.3959 and 0.3641 and 0.3989
same,cAMP levels (Figure 8k),IKKε [1]; ISO+IKKε,0.1824 and 0.1892 and 0.1882
same,Glycerol (Figure 9l),IKKε [2]; siIKKϵ +,169.673 µmol/L and 171.907 µmol/L and 177.534 µmol/L
same,"UCP1 (western blotting, Figure 9J)",IKKε [2]; siIKKϵ +,0.6893 and 0.7105 and 0.7747
same,cAMP (Figure 9k),IKKε [2]; siIKKϵ +,0.3589 pmol/mg protein and 0.3755 pmol/mg protein and 0.3876 pmol/mg protein and 0.3693 pmol/mg protein and 0.3629 pmol/mg protein and 0.3678 pmol/mg protein
same,Glycerol (Figure 9l),IKKε [2]; siIKKϵ -,104.409 µmol/L and 108.54 µmol/L and 120.987 µmol/L
same,"UCP1 (western blotting, Figure 9J)",IKKε [2]; siIKKϵ -,0.5841 and 0.5565 and 0.4767
same,cAMP (Figure 9k),IKKε [2]; siIKKϵ -,0.2714 pmol/mg protein and 0.2836 pmol/mg protein and 0.2536 pmol/mg protein and 0.2485 pmol/mg protein and 0.2952 pmol/mg protein

# From PMC9374667 (Communications Biology, 2022)
